Experimental data as given in paper PMC5298231, “The Malaria Parasite's Lactate Transporter PfFNT Is the Target of Antiplasmodial Compounds Identified in Whole Cell Phenotypic Screens” (PLoS Pathogens, 2017).
Peptide text beside a SMILES is read from it.

Tested on: erythrocytes infected with 3D7 trophozoites
Type: cell-based, Plasmodium falciparum
Details: sheet Ratio; for Ratio of metabolite abundance, Exp1_1hr: Exp1, 1hr; for Ratio of metabolite abundance, Exp1_3hr: Exp1, 3hr; for Ratio of metabolite abundance, Exp1_6hr: Exp1, 6hr; for Ratio of metabolite abundance, Exp2_1hr: Exp2, 1hr; for Ratio of metabolite abundance, Exp2_3hr: Exp2, 3hr; for Ratio of metabolite abundance, Exp2_6hr: Exp2, 6hr; for Ratio of metabolite abundance, Exp3_1hr: Exp3, 1hr; for Ratio of metabolite abundance, Exp3_3hr: Exp3, 3hr; for Ratio of metabolite abundance, Exp3_6hr: Exp3, 6hr

Row | SMILES | Ratio of metabolite abundance, Exp1_1hr | Ratio of metabolite abundance, Exp1_3hr | Ratio of metabolite abundance, Exp1_6hr | Ratio of metabolite abundance, Exp2_1hr | Ratio of metabolite abundance, Exp2_3hr | Ratio of metabolite abundance, Exp2_6hr | Ratio of metabolite abundance, Exp3_1hr | Ratio of metabolite abundance, Exp3_3hr | Ratio of metabolite abundance, Exp3_6hr
1 | O=C(CO)COP(=O)(O)O [Glycerone phosphate] | 2.2 | 2.096 | 0.8912 | 1.254 | 1.043 | 0.7007 | 1.243 | 1.057 | 0.7275
2 | CC(C)C[C@H](NC(=O)[C@@H](N)Cc1cnc[nH]1)C(=O)N[C@@H](CC(=O)O)C(=O)O [HLD] (H-His-Leu-Asp-OH) | 0.6785 | 0.3938 | 1.496 | 0.9181 | 0.5663 | 1.359 | 0.7775 | 0.6588 | 1.57
3 | CC(C)[C@H](NC(=O)[C@@H](N)Cc1c[nH]cn1)C(=O)N[C@@H](CC(=O)O)C(=O)N[C@@H](CC(=O)O)C(=O)O [HVDD] (H-HVDD-OH) | 0.5307 | 0.3298 | 0.7281 | 0.7593 | 0.3961 | 1.162 | 0.6174 | 0.4236 | 1.2463
4 | O=C(O)[C@@H]1CC(O)CN1 (stereo partly drawn) [Hydroxy-L-proline] | 1.2334 | 0.9688 | 0.6326 | 1.182 | 1.17 | 1.132 | 1.1402 | 1.1046 | 1.082
5 | O=c1[nH]cnc2c1ncn2[C@@H]1O[C@H](COP(=O)(O)OP(=O)(O)O)[C@@H](O)[C@H]1O [IDP] | 0.8853 | 1.384 | 1.314 | 0.5363 | 0.6148 | 0.824 | 1.461 | 1.458 | 1.561
6 | CC(C)C[C@H](N)C(=O)N[C@@H](CC(=O)O)C(=O)O [LD] (H-Leu-Asp-OH) | 1.295 | 0.7458 | 0.9103 | 1.486 | 1.077 | 1.185 | 1.151 | 1.268 | 1.201
7 | CC(O)C(=O)O (stereo not drawn) [Lactate] | 8.023 | 5.339 | 5.015 | 5.913 | 7.877 | 8.247 | 2.842 | 5.6661 | 4.424
8 | CC(=O)N[C@@H](CCC(=O)O)C(=O)O [N-Acetyl-glutamate] | 1.252 | 0.8243 | 0.4492 | 1.417 | 0.7877 | 0.6113 | 0.5549 | 0.2844 | 0.3771
9 | NC(=O)N[C@@H](CC(=O)O)C(=O)O [N-Carbamoyl-L-aspartate] | 0.3523 | 0.4866 | 0.4355 | 0.4532 | 0.2641 | 0.4319 | 0.3568 | 0.3426 | 0.2976
10 | NC(=O)c1ccc[n+]([C@@H]2O[C@H](COP(=O)([O-])OP(=O)(O)OC[C@H]3O[C@@H](n4cnc5c(N)ncnc54)[C@H](O)[C@@H]3O)[C@@H](O)[C@H]2O)c1 [NAD+] | 1.033 | 0.9084 | 1.09 | 0.9571 | 1.088 | 1.117 | 1.081 | 1.082 | 1.084
11 | NC(=O)C1=CN([C@@H]2O[C@H](COP(=O)(O)OP(=O)(O)OC[C@H]3O[C@@H](n4cnc5c(N)ncnc54)[C@H](O)[C@@H]3O)[C@@H](O)[C@H]2O)C=CC1 [NADH] | 0.4095 | 0.2777 | 0.1491 | 0.4801 | 0.5784 | 0.1509 | 0.301 | 0.1742 | 0.1364
12 | NC(=O)c1ccc[n+]([C@@H]2O[C@H](COP(=O)([O-])OP(=O)(O)OC[C@H]3O[C@@H](n4cnc5c(N)ncnc54)[C@H](OP(=O)(O)O)[C@@H]3O)[C@@H](O)[C@H]2O)c1 [NADP+] | 0.7131 | 0.6937 | 0.7662 | 1.042 | 0.9729 | 0.8073 | 0.7811 | 0.7388 | 0.8166
13 | O=C(O)c1cc(=O)[nH]c(=O)[nH]1 [Orotate] | 0.5025 | 0.4692 | 0.3315 | 0.4622 | 0.4131 | 0.4313 | 0.3435 | 0.2448 | 0.2332
14 | C[C@H](NC(=O)[C@@H]1CCCN1)C(=O)N[C@@H](CCC(=O)O)C(=O)N[C@@H](Cc1ccccc1)C(=O)O [PAEF] (H-PAEF-OH) | 0.6152 | 0.1924 | 1.448 | 0.9598 | 0.5962 | 1.961 | 0.6833 | 0.575 | 1.883
15 | CC(C)[C@H](NC(=O)[C@H](C)NC(=O)[C@@H]1CCCN1)C(=O)N[C@@H](Cc1c[nH]cn1)C(=O)O [PAVH] | 0.3897 | 0.1614 | 0.8308 | 0.6106 | 0.3696 | 0.9246 | 0.514 | 0.3038 | 1.108
16 | CC(C)[C@H](NC(=O)[C@H](C)NC(=O)[C@H](CC(=O)O)NC(=O)[C@@H]1CCCN1)C(=O)O [PDAV] (H-PDAV-OH) | 1.025 | 1.041 | 2.029 | 1.45 | 1.498 | 2.552 | 1.376 | 1.38 | 2.341
17 | O=C(O)C[C@H](NC(=O)[C@@H]1CCCN1)C(=O)O [PD] (H-Pro-Asp-OH) | 1.093 | 0.9772 | 1.538 | 1.264 | 1.209 | 2.9187 | 1.287 | 1.3146 | 2.682
18 | O=C(O)CC[C@H](NC(=O)[C@H](CCC(=O)O)NC(=O)[C@@H]1CCCN1)C(=O)O [PEE] (H-Pro-Glu-Glu-OH) | 1.088 | 0.6949 | 2.228 | 1.338 | 0.8845 | 1.822 | 1.136 | 1.044 | 2.15
19 | O=C(O)CC[C@H](NC(=O)[C@@H]1CCCN1)C(=O)O [PE] (H-Pro-Glu-OH) | 2.339 | 1.989 | 3.207 | 2.25 | 1.648 | 3.078 | 2.352 | 2.042 | 3.469
